In assay [1] the test system is atherosclerotic plaque in Ldlr−/− BMT mice. The assay can be described thus: Aortic root plaque size in high fat/high cholesterol diet-fed competitive-BMT Ldlr−/− mice. It counts as in vivo. To be noted: continuous infusion 5 mg/kg/day via subcutaneous osmotic pumps. As to the method:
Aortic root plaque size in high fat/high cholesterol diet-fed 10% KO-BMT mice and 10% WT-BMT. […] Representative images of hematoxylin/eosin-stained sections are shown; plaques are delineated by discontinuous lines (scale bar: 100 μm). Statistical significance was evaluated by 2-way ANOVA with Tukey multiple comparison test (*p<0.05, […]).
Lethally irradiated Ldlr−/− recipients were transplanted with suspensions of BM cells containing 10% CD45.2+ Tet2−/− cells and 90% CD45.1+ Tet2+/+ cells (10% KO-BMT mice), or 10% CD45.2+ Tet2+/+ cells and 90% CD45.1+ Tet2+/+ cells (10% WT-BMT mice) (Fig. S1). BM cells were isolated from femurs and tibias of donor mice after euthanasia. Donor CD45.2+ cells were obtained from Tet2+/+ or −/− littermates; donor CD45.1+ cells were obtained from Pep Boy mice. Recipient Ldlr−/− mice were irradiated in a pie cage (Braintree Scientific) to limit mobility and ensure equal dose of irradiation and were exposed to two radiation doses of 550 rad three hours apart using an X-RAD 320 Biological Irradiator. After the second irradiation, each recipient mouse was injected with 10^7 BM cells i.v. Sterilized caging, food and water were provided during the first 14 days post-transplant and water was supplemented with antibiotics (Sulfatrim). […]
Mice were euthanized and aortas were removed after in situ perfusion with phosphate-buffered saline (PBS) injected through the left ventricle of the heart. […] All histological sections comprising the aortic root as determined by the location of the aortic valve leaflets were cut at a thickness of 6 μm. An operator who was blinded to genotype quantified plaque size in aortic root sections by computer-assisted morphometric analysis of microscopy images acquired on a KEYENCE BZ-9000 microscope. For each mouse, atherosclerosis plaque size in aortic root cross-sections was calculated as the average of 5 independent sections separated by ˜18 μm.

Assay [2] has as its system heart failure by chronic ischemia (LAD ligation) in mice. Put plainly: Post-infarction remodeling after permanent LAD ligation in BMT mice. It counts as in vivo. From the text: 21A. Scheme of the experimental study. Mice underwent partial (10%) bone marrow reconstitution with Tet2-deficient cells or WT cells following lethal irradiation. After 8 weeks of recovery, mice underwent permanent LAD ligation. PBS or MCC-950 infusion by osmotic pump was initiated 1 week after LAD ligation for 4 weeks. 21B. […] 21C.
(§1) Heart failure was induced in C57/B16 mice by pressure overload, achieved by transverse aortic constriction (TAC), or by chronic ischemia, induced by the permanent ligation of the left anterior descending (LAD) artery (FIGS. 19, 20). In both models, Tet2-deficient hematopoietic cells were used to partially reconstitute the bone marrow of lethally irradiated mice, leading to their clonal expansion. Alternatively, Tet2 was specifically ablated in myeloid cells using Cre recombinase expressed from the LysM promoter. In mice, undergoing LAD ligation, Tet2-deficiency led to worsened cardiac remodeling and function regardless of the means of Tet2 ablation. In mice undergoing TAC, Tet2-deficiency led to greater hypertrophy and systolic dysfunction regardless of the means of Tet2 ablation.

In assay [3] the test system is heart failure by pressure overload (TAC) in mice. Put plainly: Pressure overload (TAC) heart failure in BMT mice. The format is in vivo.
Source text: 22A. Scheme of the experimental study. Mice underwent partial (10%) bone marrow reconstitution with Tet2-deficient cells or WT cells following lethal irradiation. After 8 weeks of recovery, mice underwent permanent TAC surgery to produce pressure overload on the heart. 22B. […] 22C. […] 22D. […] LVPWTd=left ventricle posterior wall thickness at diastole, FS=fractional shortening. 22E.
as §1

In a further assay the test system is IL-1β expression. Put plainly: qRT-PCR of IL-1β expression in LPS/IFNγ-treated peritoneal macrophages. It counts as cell-based, mouse. The settings on record: 8 hours 10 ng/mL LPS and 2 ng/ml IFNγ; 0.5 μM TSA. As to the method:
(§2) 14A. qRT-PCR analysis of IL-1β expression in peritoneal macrophages isolated from Tet2−/− or +/+ mice (n=3 mice/genotype) and treated for 8 hours with 10 ng/mL LPS and 2 ng/ml IFNγ in the absence or presence of 0.5 μM Trichostatin A (TSA). 14B. ChIP analysis of H3 acetylation in the IL-1β promoter of macrophages isolated from Tet2−/− or +/+ mice (n=6/genotype) after 10 hours of LPS/IFNγ treatment. 14C. qRT-PCR analysis of IL-6 expression in peritoneal macrophages isolated from Tet2−/−/ mice or +/+ controls (n=3 mice/genotype) and treated for 8 hours with 10 ng/mL LPS and 2 ng/ml IFNγ in the absence or presence of 0.5 μM TSA. 14D. […]
(§3) Thioglycollate-elicited macrophages were obtained from the peritoneal cavity of mice 4 days after intraperitoneal injection of 1 ml of aged 4% Brewer's thioglycollate broth (BD Difco). […] Cell cycle progression and apoptosis of cultured macrophages was evaluated by flow cytometry analysis of DNA content. […] For analysis of apoptosis induced by treatment with 7-ketocholesterol (Sigma), hypodiploid (SubG1) cells were quantified using with FLOWJO Software. Uptake of fluorescent dil-conjugated oxidized LDL (Alfa Aesar) was evaluated by flow cytometry analysis. […]
(§4) Total RNA from tissues and cultured cells was isolated using QIAZOL reagent and RNEASY kits (QIAGEN). […] Results were analyzed with the ΔΔCt method. […]

In the next assay the test system is IL-6 expression. The assay can be described thus: qRT-PCR of IL-6 expression in LPS/IFNγ-treated peritoneal macrophages. It counts as cell-based, mouse. The settings on record: 8 hours 10 ng/mL LPS and 2 ng/ml IFNγ; 0.5 μM TSA. As to the method:
as §2, §3, §4

The test system of another assay is TNF expression. Put plainly: qRT-PCR of TNF expression in LPS/IFNγ-treated peritoneal macrophages. It counts as cell-based, mouse. The settings on record: HDAC inhibition with TSA in macrophages.
Source text: Although many details of its role in regulating chromatin architecture remain unknown, Tet2 has emerged as a multifaceted epigenetic regulator that is able to facilitate both transcription activation and repression depending on the molecular and cellular context. Given that Tet2 loss-of-function is associated with increased IL-1β gene expression, experiments were focused on potential mechanisms of Tet2-mediated transcriptional repression in macrophages.
as §3, with “Difco). Macrophages were allowed to adhere for 4 hours and cultured in RPMI medium supplemented with antibiotics and 10% FBS (PERFORMANCE PLUS FBS, Gibco).” for “Difco).”
as §4

[4] abbreviates: mice reconstituted with Tet2-knockout bone marrow, after pressure overload.

Take `CC(C)(O)c1coc(S(=O)(=O)NC(=O)Nc2c3c(cc4c2CCC4)CCC3)c1` [MCC950]: the “decrease of atherosclerotic plaque size” value in assay [1] (10% KO-BMT mice) is around 50%. In addition, the “reduction of atherosclerotic plaque size” value in assay [1] (10% WT-BMT controls, nonstatistically significant) worked out at 20%. In addition, the “difference in aortic plaque size between chimeric (10% KO-BMT) and nonchimeric control mice” value in assay [1] was “eliminated”. Besides, the “differences in cardiac parameters between Tet2-deficient and WT conditions” value in assay [2] (5 week time point post-LAD ligation) was “eliminates the differences in cardiac parameters”. Also, the “development of heart failure” value in assay [2] (LAD ligation model (FIG. 21)) is recorded as “protected against the development of heart failure”. Also, the “cardiac remodeling, echocardiographic ejection fraction (EF)” value in assay [2] (Tet2-KO and wild-type bone marrow, osmotic pump infusion from 1 week after LAD ligation for 4 weeks) was “protects against adverse cardiac remodeling”. Besides, in assay [2] (after LAD ligation), the “differences in cell size between Tet2-deficient and WT conditions” value was “eliminates the differences in cell size”. In addition, the “cardiac myocyte hypertrophy after LAD ligation” value in assay [2] (mice reconstituted with Tet2-KO and wild-type bone marrow) is given as “inhibits the increase in cardiac myocyte hypertrophy”. Moreover, the “development of heart failure” value in assay [3] (TAC model (FIG. 22)) is reported as “protected against the development of heart failure”. For the same compound, in assay [3] (after pressure overload), the “difference in cardiac fibrosis between Tet2-deficient and WT conditions” value is “eliminates the difference in this parameter”; the “difference in myocyte CSA between Tet2-deficient and WT conditions” value is given as “eliminates the difference in this parameters”; the “differences in HW and LW between Tet2-deficient and WT conditions” value is on record as “eliminates the differences in these parameters”; the “differences in echocardiographic parameters between Tet2-deficient and WT conditions” value is on record as “eliminates the differences in the echocardiographic parameters”. For the same compound, the “heart weight (HW) and wet lung weight (LW) adjusted by tibia length (TL)” value in assay [3] (after pressure overload, both strains of mice) is “ameliorates the increase of cardiac and lung mass”. In addition, in assay [3] (after pressure overload, wild type and hematopoietic Tet2-KO mice), the “myocyte cross-sectional area (CSA)” value is on record as “inhibits hypertrophy”. Further, in assay [3] (setting [4]), the “cardiac fibrosis (Picro sirius staining)” value is reported as “can be reversed” and the “deterioration of cardiac function (echocardiographic parameters, LVPWTd, FS)” value is recorded as “can be reversed”.

For `CC(/C=C/C(=O)NO)=C\[C@@H](C)C(=O)c1ccc(N(C)C)cc1` [Trichostatin A], in the assay on IL-1β expression, the “IL-1β expression (qRT-PCR)” value was “increased IL-1β expression”; the “IL-1β expression differences between Tet2-deficient and WT genotypes” value is given as “abolished expression differences”. Moreover, in the assay with IL-6 expression, the “IL-6 expression differences between genotypes” value was “did not affect differences between genotypes” and the “IL-6 transcript expression (qRT-PCR)” value is “reduced transcript expression”. Besides, the TNF transcript expression result with TNF expression is reported as “reduced transcript expression”.

The record behind these values is patent publication US10041044B2, “Age-associated clonal hematopoiesis accelerates cardio-metabolic disease development” (TRUSTEES OF BOSTON UNIVERSITY, priority 2016, dated 2018).
